Measured values as given in PubChem BioAssay (NCI).
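Assay format: 96-well plates, 48-hour exposure. GI50: concentration for 50% inhibition of growth. TGI: total growth inhibition.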

Key:
Test in all cases: NCI anticancer screen, dose series, 48 h
786-0 renal = system: 786-0 renal
A498 renal = system: A498 renal
A549 NSCLC = system: A549 NSCLC
ACHN renal = system: ACHN renal
BT-549 breast = system: BT-549 breast
CAKI-1 renal = system: CAKI-1 renal
CCRF-CEM leukemia = system: CCRF-CEM leukemia
COLO 205 colon = system: COLO 205 colon
DU-145 prostate = system: DU-145 prostate
EKVX NSCLC = system: EKVX NSCLC
HCC-2998 colon = system: HCC-2998 colon
HCT-116 colon = system: HCT-116 colon
HCT-15 colon = system: HCT-15 colon
HL-60(TB) leukemia = system: HL-60(TB) leukemia
HOP-62 NSCLC = system: HOP-62 NSCLC
HOP-92 NSCLC = system: HOP-92 NSCLC
HS 578T breast = system: HS 578T breast
HT29 colon = system: HT29 colon
IGROV1 ovarian = system: IGROV1 ovarian
K-562 leukemia = system: K-562 leukemia
KM12 colon = system: KM12 colon
LOX IMVI melanoma = system: LOX IMVI melanoma
M14 melanoma = system: M14 melanoma
MALME-3M melanoma = system: MALME-3M melanoma
MCF7 breast = system: MCF7 breast
MDA-MB-231 breast = system: MDA-MB-231 breast
MDA-MB-435 = system: MDA-MB-435
MDA-MB-468 breast = system: MDA-MB-468 breast
MOLT-4 leukemia = system: MOLT-4 leukemia
NCI-H226 lung = system: NCI-H226 lung
NCI-H23 lung = system: NCI-H23 lung
NCI-H460 lung = system: NCI-H460 lung
NCI-H522 lung = system: NCI-H522 lung
NCI/ADR-RES ovarian = system: NCI/ADR-RES ovarian
OVCAR-3 ovarian = system: OVCAR-3 ovarian
OVCAR-4 ovarian = system: OVCAR-4 ovarian
OVCAR-5 ovarian = system: OVCAR-5 ovarian
OVCAR-8 ovarian = system: OVCAR-8 ovarian
PC-3 prostate = system: PC-3 prostate
RPMI-8226 leukemia = system: RPMI-8226 leukemia
RXF 393 renal = system: RXF 393 renal
SF-268 CNS = system: SF-268 CNS
SF-295 CNS = system: SF-295 CNS
SF-539 CNS = system: SF-539 CNS
SK-MEL-2 melanoma = system: SK-MEL-2 melanoma
SK-MEL-28 melanoma = system: SK-MEL-28 melanoma
SK-MEL-5 melanoma = system: SK-MEL-5 melanoma
SK-OV-3 ovarian = system: SK-OV-3 ovarian
SN12C renal = system: SN12C renal
SNB-19 CNS = system: SNB-19 CNS
SNB-75 CNS = system: SNB-75 CNS
SR leukemia = system: SR leukemia
SW-620 colon = system: SW-620 colon
T-47D breast = system: T-47D breast
TK-10 renal = system: TK-10 renal
U251 CNS = system: U251 CNS
UACC-257 melanoma = system: UACC-257 melanoma
UACC-62 melanoma = system: UACC-62 melanoma
UO-31 renal = system: UO-31 renal

## CNS(=O)(=O)N1CCc2c(Br)c3c(c(OC)c2C1CCc1ccccc1)OCO3 (stereo not drawn)
786-0 renal
  GI50: 19.6 µM
  TGI: 62.5 µM
A498 renal
  GI50: 15.7 µM
  TGI: 34.6 µM
A549 NSCLC
  GI50: 14.7 µM
  TGI: > 100 µM
ACHN renal
  GI50: 20.3 µM
  TGI: 92.2 µM
BT-549 breast
  GI50: 15.4 µM
  TGI: 30 µM
CAKI-1 renal
  GI50: 7.25 µM
  TGI: > 100 µM
CCRF-CEM leukemia
  GI50: 24.3 µM
  TGI: > 100 µM
COLO 205 colon
  GI50: 14.9 µM
  TGI: 30.7 µM
DU-145 prostate
  GI50: 29.2 µM
  TGI: > 100 µM
EKVX NSCLC
  GI50: 14.1 µM
  TGI: > 100 µM
HCC-2998 colon
  GI50: 18.4 µM
  TGI: 75.7 µM
HCT-116 colon
  GI50: 6.64 µM
  TGI: 26.3 µM
HCT-15 colon
  GI50: 23.1 µM
  TGI: > 100 µM
HL-60(TB) leukemia
  GI50: 22.9 µM
  TGI: 61.9 µM
HOP-62 NSCLC
  GI50: 13.5 µM
  TGI: 37.5 µM
HOP-92 NSCLC
  GI50: 11.4 µM
  TGI: 33.4 µM
HS 578T breast
  GI50: 12.7 µM
  TGI: 42 µM
HT29 colon
  GI50: 18.7 µM
  TGI: > 100 µM
IGROV1 ovarian
  GI50: 14.1 µM
  TGI: 81.6 µM
K-562 leukemia
  GI50: 17.3 µM
  TGI: > 100 µM
KM12 colon
  GI50: 19.4 µM
  TGI: 78.1 µM
LOX IMVI melanoma
  GI50: 10.1 µM
  TGI: 23.5 µM
M14 melanoma
  GI50: 12.2 µM
  TGI: 34 µM
MALME-3M melanoma
  GI50: 17.8 µM
  TGI: 34.8 µM
MCF7 breast
  GI50: 16.6 µM
  TGI: 90.7 µM
MDA-MB-231 breast
  GI50: 7.33 µM
  TGI: 22.3 µM
MDA-MB-435
  GI50: 12.5 µM
  TGI: 31.3 µM
MDA-MB-468 breast
  GI50: 9.95 µM
  TGI: 35.5 µM
MOLT-4 leukemia
  GI50: 10.4 µM
  TGI: > 100 µM
NCI-H226 lung
  GI50: 10.8 µM
  TGI: 25.8 µM
NCI-H23 lung
  GI50: 17 µM
  TGI: 72.4 µM
NCI-H460 lung
  GI50: 13.7 µM
  TGI: 30.1 µM
NCI-H522 lung
  GI50: 13 µM
  TGI: 38.7 µM
NCI/ADR-RES ovarian
  GI50: 14 µM
  TGI: 86.9 µM
OVCAR-3 ovarian
  GI50: 13.7 µM
  TGI: 29.9 µM
OVCAR-4 ovarian
  GI50: 14.7 µM
  TGI: 85 µM
OVCAR-5 ovarian
  GI50: 14.1 µM
  TGI: 33.8 µM
OVCAR-8 ovarian
  GI50: 24.6 µM
  TGI: > 100 µM
PC-3 prostate
  GI50: 5.67 µM
  TGI: > 100 µM
RPMI-8226 leukemia
  GI50: 12.4 µM
  TGI: > 100 µM
RXF 393 renal
  GI50: 13.5 µM
  TGI: 31.4 µM
SF-268 CNS
  GI50: 16.8 µM
  TGI: > 100 µM
SF-295 CNS
  GI50: 11.1 µM
  TGI: 31.8 µM
SF-539 CNS
  GI50: 15.2 µM
  TGI: 30.1 µM
SK-MEL-2 melanoma
  GI50: 14.5 µM
  TGI: 30.7 µM
SK-MEL-28 melanoma
  GI50: 15.7 µM
  TGI: 31.1 µM
SK-MEL-5 melanoma
  GI50: 15.4 µM
  TGI: 28.8 µM
SK-OV-3 ovarian
  GI50: 20.9 µM
  TGI: 73.6 µM
SN12C renal
  GI50: 11.6 µM
  TGI: 24.7 µM
SNB-19 CNS
  GI50: 23.8 µM
  TGI: > 100 µM
SNB-75 CNS
  GI50: 4.24 µM
  TGI: 34.5 µM
SR leukemia
  GI50: 24 µM
  TGI: > 100 µM
SW-620 colon
  GI50: 21.8 µM
  TGI: > 100 µM
T-47D breast
  GI50: 9.48 µM
  TGI: 67.4 µM
TK-10 renal
  GI50: 34.4 µM
  TGI: > 100 µM
U251 CNS
  GI50: 15.6 µM
  TGI: 35.6 µM
UACC-257 melanoma
  GI50: 20.9 µM
  TGI: 51.5 µM
UACC-62 melanoma
  GI50: 6.4 µM
  TGI: 21.4 µM
UO-31 renal
  GI50: 10.2 µM
  TGI: 69.1 µM
